For data set [1] the following is noted: treating gastroesophageal reflux disease; Van Her Waarde et al. 2000; cited from earlier work.
The next data set can be described thus: Acid stability. In kind it is physicochemical. To be noted: stomach environment.
In data set [2] the target is T1, human motilin receptor (Homo sapiens, UniProt O43193).
T1 construct: expressed in transfected cells; host or cells: HEK293 (ATCC CRL-1573), transiently or stably transfected with pkos127-159 and pmtAEQ
Briefly: Motilin receptor activation assay (aequorin luminescence). It counts as cell-based. To be noted: motilin receptor agonism. An excerpt:
A gene encoding the target receptor is cloned and placed into a mammalian expression vector such as pcDNA3.1. The gene may be synthetic or naturally derived. Next, pmtAEQ, an aequorin expression plasmid available from Molecular Probes, and the receptor expression construct are transfected into HEK293 cells using a commercially available transfection kit such as Lipofectamine Plus (Gibco BRL). At this point, a stable cell line may be selected from the transfection mix using common techniques, or the heterologous mixture obtained from transient transfection may be used directly. […] A 100 uL aliquot of cells is added to each well, and following each addition, the integrated luminescence is measured for 30-60 seconds and is taken as the agonist response. Next, 100 uL of 1% triton X-100 in PBS is injected into each well, and the integrated luminescence is measured a second time over 30-60 seconds and is taken as the triton response. A value F is calculated as equaled to the agonist response divided by the sum of the agonist response and the triton response. […]
(§1) Flasks containing HEK293 cells either transiently or stably expressing the motilin receptor and aequorin were used in receptor activation assays. Cells were grown to 80-100% confluence in T175 flasks containing MEMalpha medium with 10% v/v fetal bovine serum, harvested by trypsinization, and counted using a hemocytometer. […]

For data set [3], the target named is T1, human motilin receptor. Briefly: Efficacy index: ratio of desensitization value to potency value, motilin receptor and aequorin co-expressed. In kind it is cell-based. To be noted: ratio of desensitization value (IC50) to potency value (EC50); cells co-expressing motilin receptor and aequorin.
Excerpt: In one aspect of the present invention, the comparison of the potency value and the desensitization value is accomplished by calculating a ratio of the desensitization value to the potency value. This ratio is termed the “efficacy index”. […] In other words, because the concentration required for the desired biological response is also the concentration that induces desensitization, the compound is not likely to be therapeutically effective if the desired response is receptor activation. Under these circumstances, the concentration required for the desired biological response should be well below the concentration that induces desensitization. […]
as §1
Stock solutions (20 mM) of test compounds were made in ethanol and diluted 100-fold into PBS. […] One of the injectors was used to add 100 uL of the cell suspension (˜5×10^4 to 10^5) to each well, and the bioluminescence response was measured over the course of 30-60 seconds. […] The F value of the cells to each test compound was calculated using equation 1, and data were fit to equation 2 to obtain EC50 values for the test compounds. […]

Another data set deals with T2, C3a receptor (Homo sapiens, UniProt Q16581).
T2 construct: expressed in transfected cells; host or cells: HEK 293, transient transfection, with or without promiscuous G protein Galpha16
T2 sequence (Q16581 1-482): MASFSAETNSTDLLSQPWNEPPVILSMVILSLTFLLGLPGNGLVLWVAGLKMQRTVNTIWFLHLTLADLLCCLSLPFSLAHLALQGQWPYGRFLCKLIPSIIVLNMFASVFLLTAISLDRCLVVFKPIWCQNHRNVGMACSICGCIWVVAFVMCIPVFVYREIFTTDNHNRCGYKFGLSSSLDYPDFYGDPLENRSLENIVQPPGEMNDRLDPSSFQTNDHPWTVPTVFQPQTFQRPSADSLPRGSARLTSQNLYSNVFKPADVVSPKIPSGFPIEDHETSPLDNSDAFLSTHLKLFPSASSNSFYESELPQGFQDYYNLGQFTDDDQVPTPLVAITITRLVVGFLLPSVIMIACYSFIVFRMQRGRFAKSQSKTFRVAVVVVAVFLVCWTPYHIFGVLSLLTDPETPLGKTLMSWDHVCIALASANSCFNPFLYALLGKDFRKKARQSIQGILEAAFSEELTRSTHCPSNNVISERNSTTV
Kind of data set: Ca2+ mobilization via FLIPR. It counts as cell-based. As for the experimental part: 1. 24 h after receptor transfection harvest and plate cells into poly-D-lysine-coated 96-well black-walled/clear bottom microtiter plates (Becton Dickinson Labware) at 3×10^4 cells per well.
2. After 18 to 24 h aspirate off medium and add 100 μl of fresh EMEM containing 4 μM Fluo-3/AM (Molecular Probes; prepare stock solution at 2 mM in DMSO containing 20% pluronic acid), 0.1% BSA, and […] to each well and incubate for 1 h at 37° C.
3. Aspirate medium and replace with 100 μl of the same medium, but without Fluo-3/AM, and incubate for 10 min at 37° C. Wash cells three times with a Denley cell washer (Labsystems) with Krebs Ringer Henscleit (KRH; 118 mM NaCl, 4.6 mM KCl, […] NaHCO3, 1 mM KH2PO4, 1.1 mM glucose, 1.1 mM MgCl2) containing 0.1% BSA, […], and 20 mM HEPES pH 7.4 (buffer A). After the last wash aspirate down to a final volume of 100 μl.
4. Prepare plates of potential ligands, tissue extracts, or compound libraries in 96-well polypropylene microplates at three times the final concentration in buffer A and warm to 37° C.
5. Place microplates containing Fluo-3 loaded cells and the ligand plates in FLIPR and monitor. At initiation of the fluorescence recording read measurements every 1 s for 60 s and then every 3 s for the following 60 s. […] FLIPR software normalizes fluorescent readings to give equivalent readings for all wells at zero time.
A general note: Calcium flux is commonly read through the fluorescence of an indicator in the cells.

T1 sequence (O43193 whole entry): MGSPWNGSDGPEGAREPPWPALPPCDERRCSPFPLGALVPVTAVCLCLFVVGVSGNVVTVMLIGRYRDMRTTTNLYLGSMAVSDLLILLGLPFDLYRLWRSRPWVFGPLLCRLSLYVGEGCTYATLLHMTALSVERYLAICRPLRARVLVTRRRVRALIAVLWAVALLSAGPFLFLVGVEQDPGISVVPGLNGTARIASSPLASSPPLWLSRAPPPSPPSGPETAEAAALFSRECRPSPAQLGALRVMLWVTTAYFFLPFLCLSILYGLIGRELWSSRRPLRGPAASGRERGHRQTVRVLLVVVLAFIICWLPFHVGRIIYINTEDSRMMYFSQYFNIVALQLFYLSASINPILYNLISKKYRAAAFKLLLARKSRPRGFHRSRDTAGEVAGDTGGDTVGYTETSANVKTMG

With `CC[C@H]1OC(=O)[C@H](C)[C@@H](OC2C[C@@](C)(OC)C[C@H](C)O2)[C@H](C)[C@@H](OC2O[C@H](C)C[C@H](N(C)CC)[C@H]2O)[C@]2(C)CC(C)=C(O2)[C@H](C)[C@@H](O)[C@H]1C` (stereo partly drawn) [ABT-229], the clinical efficacy result in data set [1] was “lack of efficacy”.
For `CC[C@H]1OC(=O)[C@H](C)[C@@H](OC2C[C@@](C)(OC)[C@@H](O)[C@H](C)O2)[C@H](C)[C@@H](OC2O[C@H](C)C[C@H](N(C)C)[C@H]2O)[C@]2(C)CC(C)=C(O2)[C@H](C)[C@@H](O)[C@]1(C)O` (stereo partly drawn) [erythromycin 6,9-enol ether], in the data set “Acid stability”, the stability in acid entry is listed as “unstable in acid”. In addition, on human motilin receptor [2], the “potency (EC50)” value is reported as “nanomolar range”. The efficacy index entry on human motilin receptor [3] is on record as “greater than 20,000”.
As for C3a: ligand of the C3a receptor, the “Ca2+ mobilization response” value with C3a receptor (C3a receptor co-expressed with Gα16 in HEK 293 cells) is reported as “robust responses”; with C3a receptor (C3a receptor expressed alone in HEK 293 cells), “weak or no Ca^2+ mobilization responses”.

Values taken from patent US6875576B2, “Method for evaluating therapeutic efficacy” (Kosan Biosciences, Inc., priority 2001, dated 2005).
